Reference: US20200009185A1, “METHOD FOR MAINTAINING INCREASED […] p53 LEVEL, INDUCED BY […]-BASED […] DRUG, AND APPLICATION THEREOF” (priority 2015, published 2020)

Columns and labels:
CaSki cells [1] = assay: WST cell viability analysis (Example 1-2); format: cell-based, human; conditions: CaSki cells transformed with HPV E6/E7 siRNA, 10 μM cisplatin 24 hours, vs group not treated with cisplatin; FIG. 1B
Description: (§1) WST analysis was performed to confirm cell viability.
(§2) Cell counts were determined by water soluble tetrazolium salts (WST) (EZ-Cytox kit; Daeil Lab Service, Seoul, Korea). EZ-Cytox solution (50 μl) added to each well of a 12-well plate and incubated for 2 to 3 hours. Live cells were measured (485 nm) using a GENios Pro microplate reader (Tecan Trading AG, Mannedorf, Switzerland) in a 96-well plate.

Hela cells [2] = assay: WST cell viability analysis (Example 1-2); format: cell-based, human; conditions: Hela cells transformed with HPV E6/E7 siRNA, 10 μM cisplatin 24 hours, vs group not treated with cisplatin; FIG. 1B
Description: as §1, §2

[3] = tested on: cervical cancer cell lines; assay: Expression level of intracellular p53 over time in cervical cancer cell lines; format: cell-based
CaSki cells [4] = assay: Western blot of TP53 and HPV E6/E7 after HPV E6/E7 siRNA and cisplatin (Example 1-1); format: cell-based, human; conditions: CaSki cells transformed with HPV E6/E7 siRNA, 10 μM cisplatin for 24 hours; FIG. 1A
CaSki cells [5] = assay: Western blot of TP53, RB, E6, E7 at time points (Example 1-4); format: cell-based, human; conditions: CaSki cells transformed with HPV E6/E7 siRNA then treated with cisplatin; FIG. 1D, 1E
From the text: (§3) Cell lysates were then obtained and subjected to western blotting.
(§4) In western blotting, antibodies of Santa Cruz Biotechnology ([…], Calif.) were used for TP53 [DO7], HPV 18-E6 [G7], HPV 16-E6 [C1P5], HPV 18-E7 [F7], HPV 16-E7 [ED17], E2F-1 [KH195], Cyclin-E [M20], β-Actin [C4] and antibody of BD Pharmingen was used for RB [554164], antibody of cell signaling was used for phospho-TP53 (ser-15) [9284].

Hela cells [6] = assay: as above; format: cell-based, human; conditions: Hela cells transformed with HPV E6/E7 siRNA then treated with cisplatin; FIG. 1D, 1E
From the text: as §3, §4

Hela cells [7] = assay: Western blot of TP53 and HPV E6/E7 after HPV E6/E7 siRNA and cisplatin (Example 1-1); format: cell-based, human; conditions: Hela cells transformed with HPV E6/E7 siRNA, 10 μM cisplatin for 24 hours; FIG. 1A
Description: Cervical cancer cell and HeLa cervical cancer cell lines (HeLa; ATCC CCL-2) infected with HPV type 18 virus and SiHa cervical cancer cell lines (SiHa; ATCC HTB-35) infected with HPV type 16 virus were plated on a 6-well plate with 5×10^4 or 1×10^5 cells and cultured in RPMI 1640 or DMEM medium for 24 hours at 37° C. and 5% carbon dioxide, respectively. siRNA intracellular transfection was performed with DharmaFect (Dharmacon, Lafayette, Colo., USA) according to manufacturer's instructions.
HeLa cervical carcinoma cells infected with HPV type 18 virus were transformed by pooling with each of siRNAs of 426 and 450 sequences, or respectively. The HPV type 16 virus-infected siHa cell line was transformed by pooling siRNAs of 366, 448 and 497 sequences, or respectively.
In the Western blot, whole-cell lysate was extracted with RIPA buffer (10 mM Tris ([…]), 0.15 M NaCl, 5 mM EDTA, 1% Triton X-100, 0.5% deoxycholic acid sodium salt and 0.1% SDS). After centrifugation, the protein concentration of the supernatant was measured using a BCA protein assay kit (Thermo Fisher Scientific Inc). Protein samples were placed in sample buffer and boiled for 5 minutes for complete denaturation. The samples were then applied to 6%, 10%, or 15% polyacrylamide gels and transferred to a 0.4 μm PVDF membrane (Milipore, Bilerica). […] Finally, the expression level of the protein was detected using ECL solution. […]

CaSki cells [8] = assay: TP53 and E2F luciferase reporter assay (Example 1-3); format: cell-based, human; conditions: CaSki cells treated with cisplatin and HPV E6/E7 siRNA; FIG. 1C
Description: (§5) The above luciferase reporter vector system was purchased from Clontech pathway profiling system (Mountain View, Calif., USA). Luciferase assay was performed using Dual-Luciferase Reporter Assay System (Promega) after 24 hours of transfection, and luminescence activity was measured using a GENios Pro microplate reader (Tecan Trading AG, Mannedorf, Switzerland).

Hela cells [9] = assay: as above; format: cell-based, human; conditions: Hela cells treated with cisplatin and HPV E6/E7 siRNA; FIG. 1C
Description: as §5

[10] = tested on: human cervical cancer cells; assay: Tumor growth in animal model transplanted with human cervical cancer cells; format: in vivo; conditions: low concentration of cisplatin

## N.N.[Cl][Pt][Cl] [cisplatin, cis-diamminedichloroplatinum [II]]
CaSki cells [1]
  cell viability: decreased
Hela cells [2]
  cell viability: decreased
[3]
  expression level of intracellular p53: in the form of a pulse and repeatedly increased and decreased
CaSki cells [4]
  amount of HPV E6/E7 protein expression: not observed
  amount of TP53 expression: increased
CaSki cells [5]
  expression level of TP53: increased
  expression level of pRB: increased
  expression levels of 16-E6 and 16-E7: decreased
Hela cells [6]
  expression level of TP53: increased
  expression level of pRB: increased
  expression levels of 18-E6 and 18-E7: decreased
Hela cells [7]
  amount of HPV E6/E7 protein expression: not observed
  amount of TP53 expression: increased
CaSki cells [8]
  activity of E2F (luciferase reporter): further decrease
  activity of TP53 (luciferase reporter): increase
Hela cells [9]
  activity of E2F (luciferase reporter): further decrease
  activity of TP53 (luciferase reporter): increase
[10]
  tumor growth inhibitory effect: no tumor growth inhibitory effect
